Calls of active or inactive are those of the source.
Legend:
[1] = reduced cellular PGC1a acetyl-lysine signal – cell-based, cherry-picked samples, dose response (AID 720514); format: functional;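 also: potency may reflect raised or lowered acetylation signal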
[2] = biological target: Genome polyprotein (dengue virus type 2, UniProt P29990); assay: flavivirus cap methylation enzyme inhibition – biochemical, confirmation dose response, primary screen (AID 588689); format: functional
[3] = biological target: T1, Histone-lysine N-methyltransferase NSD2 (Homo sapiens, UniProt O96028); format: biochemical
T1 sequence (O96028 whole entry): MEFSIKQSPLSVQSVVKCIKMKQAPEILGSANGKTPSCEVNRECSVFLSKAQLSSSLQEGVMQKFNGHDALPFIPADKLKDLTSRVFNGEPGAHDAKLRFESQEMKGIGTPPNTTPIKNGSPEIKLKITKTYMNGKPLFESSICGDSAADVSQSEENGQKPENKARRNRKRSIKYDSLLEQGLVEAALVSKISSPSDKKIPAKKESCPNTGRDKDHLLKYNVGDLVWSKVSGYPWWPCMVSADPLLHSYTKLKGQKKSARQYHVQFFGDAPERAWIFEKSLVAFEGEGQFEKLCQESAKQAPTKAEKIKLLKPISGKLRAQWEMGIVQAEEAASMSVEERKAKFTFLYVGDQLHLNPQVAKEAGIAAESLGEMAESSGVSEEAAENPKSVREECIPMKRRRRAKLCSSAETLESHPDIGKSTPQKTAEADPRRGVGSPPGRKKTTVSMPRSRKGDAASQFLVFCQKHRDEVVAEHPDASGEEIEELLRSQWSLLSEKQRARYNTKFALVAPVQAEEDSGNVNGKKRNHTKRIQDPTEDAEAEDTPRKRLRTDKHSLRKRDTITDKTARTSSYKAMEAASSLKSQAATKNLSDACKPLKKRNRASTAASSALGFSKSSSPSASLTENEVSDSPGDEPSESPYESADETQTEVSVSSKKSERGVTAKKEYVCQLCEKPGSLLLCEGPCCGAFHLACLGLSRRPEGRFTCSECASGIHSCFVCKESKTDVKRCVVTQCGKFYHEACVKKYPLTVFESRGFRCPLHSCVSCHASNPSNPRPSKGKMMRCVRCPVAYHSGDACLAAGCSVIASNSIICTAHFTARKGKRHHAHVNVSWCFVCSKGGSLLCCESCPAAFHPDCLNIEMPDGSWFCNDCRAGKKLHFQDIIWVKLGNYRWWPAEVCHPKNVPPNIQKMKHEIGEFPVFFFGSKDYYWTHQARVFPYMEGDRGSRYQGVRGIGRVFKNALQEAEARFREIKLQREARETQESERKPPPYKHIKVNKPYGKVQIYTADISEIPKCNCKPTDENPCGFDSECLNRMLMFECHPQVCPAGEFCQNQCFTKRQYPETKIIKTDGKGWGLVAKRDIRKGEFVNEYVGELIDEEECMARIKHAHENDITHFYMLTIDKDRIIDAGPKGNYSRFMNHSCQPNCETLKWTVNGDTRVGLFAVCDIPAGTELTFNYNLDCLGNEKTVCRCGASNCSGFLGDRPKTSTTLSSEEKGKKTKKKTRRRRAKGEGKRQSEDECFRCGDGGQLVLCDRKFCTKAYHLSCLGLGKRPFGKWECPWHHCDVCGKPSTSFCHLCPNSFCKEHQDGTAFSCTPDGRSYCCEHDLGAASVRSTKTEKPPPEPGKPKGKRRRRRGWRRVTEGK

[4] = biological target: T2, Oxysterols receptor LXR-beta (Homo sapiens, UniProt P55055); format: functional, cell-based;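 also: agonist activity at LXR measured by a cell-based luminescence readout across a dose range, run as a counterscreen for daf-12 agonists; HEK293 cells with Gal4-LXR fusion and GAL4-driven luciferase reporter; potency for activation of Gal4-LXR reporter so compounds are agonists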
T2 sequence (P55055 whole entry): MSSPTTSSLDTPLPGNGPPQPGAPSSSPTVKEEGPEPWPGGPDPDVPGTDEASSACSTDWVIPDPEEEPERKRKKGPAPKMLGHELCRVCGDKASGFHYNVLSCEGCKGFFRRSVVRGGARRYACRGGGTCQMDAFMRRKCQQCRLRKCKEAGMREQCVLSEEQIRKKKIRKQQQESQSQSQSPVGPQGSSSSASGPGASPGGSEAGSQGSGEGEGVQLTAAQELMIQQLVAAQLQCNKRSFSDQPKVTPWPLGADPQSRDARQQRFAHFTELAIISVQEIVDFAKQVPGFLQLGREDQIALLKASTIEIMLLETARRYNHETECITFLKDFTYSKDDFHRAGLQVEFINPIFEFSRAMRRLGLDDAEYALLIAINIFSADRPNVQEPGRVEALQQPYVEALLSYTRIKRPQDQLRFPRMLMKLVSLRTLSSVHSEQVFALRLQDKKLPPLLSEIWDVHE

[5] = OVCAR-3 cell viability loss – plate reader, dry powder samples, PAX8 inhibitor project, dose response (AID 743044); format: functional, cell-based
[6] = OVCAR8 cell viability loss – plate reader, dry powder samples, PAX8 project, dose response (AID 743197); format: functional, cell-based; conditions: OVCAR-8
[7] = IGROV1 cell killing – plate reader, dry powder samples, PAX8 inhibitor project, dose response (AID 743043); format: functional, cell-based; conditions: IGROV-1
[8] = biological target: Paired box protein Pax-8 (Homo sapiens, UniProt Q06710); assay: PAX8 transcriptional activity inhibition in RMG-I – RMG-I cells, luciferase, cherry-pick, dose response (AID 687027); format: functional, cell-based;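 also: luciferase reporter driven by Pax8 target thyroperoxidase promoter measured by SteadyGlo luminescence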
[9] = cells; format: functional, cell-based
[10] = biological target: Large T antigen (Simian virus 40, UniProt P03070); format: functional, Betapolyomavirus macacae;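 also: Confirmatory-stage PubChem screen for compounds that inhibit SV40 T antigen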
[11] = cells; format: functional, cell-based; remark: listed apart in the source

Paired box protein Pax-8, sequence (Q06710 whole entry): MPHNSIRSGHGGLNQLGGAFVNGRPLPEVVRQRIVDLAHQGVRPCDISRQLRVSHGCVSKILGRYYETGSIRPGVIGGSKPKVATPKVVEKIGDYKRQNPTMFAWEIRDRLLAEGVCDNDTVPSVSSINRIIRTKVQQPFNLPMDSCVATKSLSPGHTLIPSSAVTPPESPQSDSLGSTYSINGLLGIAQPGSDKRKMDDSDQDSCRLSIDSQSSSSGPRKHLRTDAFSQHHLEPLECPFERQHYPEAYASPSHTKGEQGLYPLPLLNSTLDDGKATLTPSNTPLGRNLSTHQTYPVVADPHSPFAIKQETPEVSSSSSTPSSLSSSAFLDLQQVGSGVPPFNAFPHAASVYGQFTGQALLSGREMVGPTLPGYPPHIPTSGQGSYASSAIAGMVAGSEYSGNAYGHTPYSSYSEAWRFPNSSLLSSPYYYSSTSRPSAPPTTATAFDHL
Large T antigen, sequence (P03070 whole entry): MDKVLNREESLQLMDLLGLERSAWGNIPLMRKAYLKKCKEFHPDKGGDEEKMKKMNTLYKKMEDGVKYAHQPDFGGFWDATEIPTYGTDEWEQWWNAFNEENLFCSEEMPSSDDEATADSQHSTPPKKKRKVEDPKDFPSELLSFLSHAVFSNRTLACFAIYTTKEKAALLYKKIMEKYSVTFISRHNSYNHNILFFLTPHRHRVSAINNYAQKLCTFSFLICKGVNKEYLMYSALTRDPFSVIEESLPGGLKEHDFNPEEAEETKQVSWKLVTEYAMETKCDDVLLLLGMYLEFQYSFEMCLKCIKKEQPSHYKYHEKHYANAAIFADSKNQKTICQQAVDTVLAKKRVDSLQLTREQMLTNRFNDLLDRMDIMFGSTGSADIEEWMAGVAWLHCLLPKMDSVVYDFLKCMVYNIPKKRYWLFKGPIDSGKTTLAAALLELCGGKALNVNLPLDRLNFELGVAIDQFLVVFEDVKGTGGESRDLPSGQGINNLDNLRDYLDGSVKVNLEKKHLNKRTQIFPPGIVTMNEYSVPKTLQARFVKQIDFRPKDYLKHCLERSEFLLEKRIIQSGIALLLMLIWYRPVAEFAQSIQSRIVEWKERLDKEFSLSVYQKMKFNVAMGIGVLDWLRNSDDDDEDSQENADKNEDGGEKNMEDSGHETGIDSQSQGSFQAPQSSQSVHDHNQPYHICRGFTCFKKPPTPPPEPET
Genome polyprotein, sequence (P29990 2492-3391 limits assumed): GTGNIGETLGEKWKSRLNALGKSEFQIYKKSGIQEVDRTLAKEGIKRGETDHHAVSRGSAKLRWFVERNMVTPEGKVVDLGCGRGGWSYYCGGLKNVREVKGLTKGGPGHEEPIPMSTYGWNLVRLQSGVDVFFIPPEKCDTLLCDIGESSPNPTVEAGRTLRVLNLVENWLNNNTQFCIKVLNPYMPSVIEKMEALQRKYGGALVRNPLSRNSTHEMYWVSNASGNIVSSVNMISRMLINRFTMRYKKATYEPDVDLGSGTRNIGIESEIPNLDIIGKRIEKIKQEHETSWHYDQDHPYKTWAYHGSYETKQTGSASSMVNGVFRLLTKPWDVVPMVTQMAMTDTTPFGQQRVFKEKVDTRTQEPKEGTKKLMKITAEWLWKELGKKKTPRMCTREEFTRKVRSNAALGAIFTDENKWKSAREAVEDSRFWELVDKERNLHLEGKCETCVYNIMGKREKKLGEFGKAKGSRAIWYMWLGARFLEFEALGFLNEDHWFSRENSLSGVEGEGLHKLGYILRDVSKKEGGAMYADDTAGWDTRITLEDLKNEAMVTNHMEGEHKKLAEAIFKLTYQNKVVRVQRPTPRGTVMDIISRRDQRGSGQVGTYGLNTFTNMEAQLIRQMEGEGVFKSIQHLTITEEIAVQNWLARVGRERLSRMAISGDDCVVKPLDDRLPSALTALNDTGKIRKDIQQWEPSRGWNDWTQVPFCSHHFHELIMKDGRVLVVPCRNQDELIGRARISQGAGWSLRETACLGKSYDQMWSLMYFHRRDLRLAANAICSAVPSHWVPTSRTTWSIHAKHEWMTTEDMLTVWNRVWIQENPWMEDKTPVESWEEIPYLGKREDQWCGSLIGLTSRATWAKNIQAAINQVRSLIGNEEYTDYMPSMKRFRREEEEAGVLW

In the case of Cc1cc(O)nc(SCC(=O)c2ccc(F)c(C)c2)n1, the AC50 [1] is reported as 26.9 µM (active).

In the case of Cc1ccc(S(=O)(=O)/N=C2\C=C(NS(=O)(=O)c3ccc(C)cc3)C(=O)c3ccccc32)cc1, the IC50 [2] is reported as 30.6 µM (active) and the AC50 [3] is reported as 2.98 µM (active).

With O=c1c2ccccc2nnn1CCc1ccccc1 the EC50 [4] was > 67.4 µM (inactive).

With Cc1ccc(S(=O)(=O)Nc2ccc3c(c2)C(=O)N([C@@H](C)CO)C[C@H](C)[C@@H](CN(C)Cc2ccc(C(F)(F)F)cc2)OCCCC[C@@H](C)O3)cc1 the AC50 [5] was 11.4 µM (active), the AC50 [6] was 30.4 µM (active) and the AC50 [7] was 33.1 µM (active). For the same compound, the AC50 [8] was 5.99 µM (active).

With C[C@H]1CCCCO[C@@H](CN(C)Cc2ccc(C(F)(F)F)cc2)[C@@H](C)CN([C@@H](C)CO)C(=O)c2cc(NS(=O)(=O)c3ccccc3)ccc2O1 the AC50 [5] was 58.1 µM (active), the AC50 [6] was > 70 µM (inactive) and the AC50 [7] was 47.8 µM (active). For the same compound, the AC50 [8] was 7.08 µM (active).

With C[C@H]1CCCCO[C@@H](CN(C)Cc2ccc(C(F)(F)F)cc2)[C@@H](C)CN([C@@H](C)CO)C(=O)c2cc(NC(=O)c3ccccc3)ccc2O1 the AC50 [5] was 6.48 µM (active), the AC50 [6] was > 70 µM (inactive) and the AC50 [7] was 29.4 µM (active). For the same compound, the AC50 [8] was 7.47 µM (active).

For COc1cccc(-c2ccc([C@@H]3[C@H]4CNC[C@@H]3N4Cc3ccc4c(c3)OCO4)cc2)c1, the AC50 [1] was 34.3 µM (active).

With Cc1cc(N/N=C/c2ccc(O)cc2O)nc(N2CCOCC2)n1 the EC50 [9] was > 29.9 µM (inactive), the IC50 [10] was > 100 µM (active) and the IC50 [11] was > 29.9 µM (inactive).

From ChEMBL document CHEMBL1201862, “PubChem BioAssay data set” (2004)
